Source: patent publication US5382579A, “Triazolo-1,4-diazepine derivatives and their use in pharmaceuticals” (Eisai Co., Ltd., priority 1988, dated 1995)

These compounds were tested against T1, PAF receptor (Homo sapiens, UniProt P25105) (assay: PAF Receptor Binding Assay to the Human Platelet (3H-PAF)). Settings: PAF receptor binding assay IC50, human platelets, 3H-PAF 0.6-1 nM, 37° C., pH 7.0.
T1 construct: Platelets are obtained from healthy men according to the usual method; endogenous in cells; host or cells: platelets from healthy men
T1 sequence (P25105 whole entry): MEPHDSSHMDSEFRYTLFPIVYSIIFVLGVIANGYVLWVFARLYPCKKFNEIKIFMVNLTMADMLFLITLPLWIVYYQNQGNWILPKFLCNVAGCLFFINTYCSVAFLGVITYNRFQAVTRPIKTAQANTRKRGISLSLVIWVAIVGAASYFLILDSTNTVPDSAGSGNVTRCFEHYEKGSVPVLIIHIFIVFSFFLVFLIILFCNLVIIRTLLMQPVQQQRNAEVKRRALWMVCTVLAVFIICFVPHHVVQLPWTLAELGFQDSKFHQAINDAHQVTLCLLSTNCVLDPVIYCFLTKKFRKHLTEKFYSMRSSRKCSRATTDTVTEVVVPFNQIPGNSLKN
Experimental: Platelets are obtained from healthy men according to the usual method and suspended at a concentration of 10^8 platelets/460 μl in a binding buffer (10 mM phosphate-buffers saline (pH 7.0), with 0.1% (w/V) BSA and 0.9 mM CaCl2). Platelets (10^8) in 460 μl of the buffer were added to polypropylene tubes and preincubated with test compounds (20 μl), after vortexing, for 6 min at 37° C. Subsequently, 20 μl of a binding buffer solution of ^3 H-PAF (final ^3 H-PAF concentration 0.6-1 nM) was added to the tubes, which were incubated for 6 minutes. The binding reaction was stopped by adding of 3 ml of an ice-cold washing solution (saline containing 0.1% (w/v) BSA). Platelets were isolated by vacuum filtration on glass filters (Whatman GF/C). After drying the glass filter, radioactivity on the glass filter was measured in scintilator with a liquid scintillation counter.
The inhibition percent is calculated according to the following equation and the value of IC is determined by interpolation from the figure. [formula] binding: radioactivity of binding in the absence of cold PAF or test compounds
non-specific binding: radioactivity of binding in the presence of 10^-5 M PAF
non-specific binding: radioactivity (dpm) after the incubation with 10^-5 M of cold PAF.

SMILES	IC50 [nM]
Cc1nnc2n1-c1sc3c(c1C(c1ccccc1Cl)=NC2)CCN(C(=O)OC(C)(C)C#N)C3	3.3
Cc1nnc2n1-c1sc3c(c1C(c1ccccc1Cl)=NC2)CCN(C(=O)C1CCC1)C3	1.8
Cc1nnc2n1-c1sc3c(c1C(c1ccccc1Cl)=NC2)CCN(C(=O)C#Cc1ccccc1)C3	0.56
C#CCCCCOC(=O)N1CCc2c(sc3c2C(c2ccccc2Cl)=NCc2nnc(C)n2-3)C1	0.22
CCC#CCOC(=O)N1CCc2c(sc3c2C(c2ccccc2Cl)=NCc2nnc(C)n2-3)C1	0.74
Cc1nnc2n1-c1sc3c(c1C(c1ccccc1Cl)=NC2C)CCN(C(=O)C1CC1)C3 (single isomer, unassigned) [drawing 94]	420
Cc1nnc2n1-c1sc3c(c1C(c1ccccc1Cl)=NC2C)CCN(C(=O)C1CC1)C3 (single isomer, unassigned) [drawing 95]	2.8
Cc1nnc2n1-c1sc3c(c1C(c1ccccc1Cl)=NC2)CCN(C(=O)OCCCC#N)C3 [drawing 82]	2.7
C#CCCOC(=O)N1CCc2c(sc3c2C(c2ccccc2Cl)=NCc2nnc(C)n2-3)C1 [drawing 83]	3.5
Cc1nnc2n1-c1sc3c(c1C(c1ccccc1Cl)=NC2)CCN(C(=O)OCCCC#N)C3 [drawing 89]	4.4

Same assay, conditions: human platelets, 3H-PAF 0.6-1 nM, 37° C., pH 7.0; read-out: PAF receptor binding assay IC50

SMILES	IC50 [nM]
Cc1nnc2n1-c1sc3c(c1C(c1ccccc1Cl)=NC2C)CCN(C(=O)OC(C)(C)C#N)C3 (single isomer, unassigned) [drawing 90]	500
Cc1nnc2n1-c1sc3c(c1C(c1ccccc1Cl)=NC2C)CCN(C(=O)OC(C)(C)C#N)C3 (single isomer, unassigned) [drawing 91]	3.1
C#CCCOC(=O)N1CCc2c(sc3c2C(c2ccccc2Cl)=NC(C)c2nnc(C)n2-3)C1 (single isomer, unassigned) [drawing 92]	82
C#CCCOC(=O)N1CCc2c(sc3c2C(c2ccccc2Cl)=NC(C)c2nnc(C)n2-3)C1 (single isomer, unassigned) [drawing 93]	0.34
C#CCCOC(=O)N1CCc2c(sc3c2C(c2ccccc2Cl)=NCc2nnc(C)n2-3)C1 [drawing 88]	1.5
